These compounds were tested against T1, mouse c-fms (Mus musculus, UniProt P09581) (assay: Inhibition of c-fms autophosphorylation in macrophage-like cell line BAC-1.2F5 by M-CSF stimulation (ELISA)). Conditions: BAC-1.2F5 cells, human recombinant M-CSF 50 ng/ml, read-out: c-fms autophosphorylation 50% inhibitory concentration (IC50).
T1 construct: Macrophage-like cell line BAC-1.2F5 which expresses c-fms as a M-CSF receptor on cell membranes; endogenous in cells; host or cells: BAC-1.2F5 mouse macrophage-like cell line
T1 sequence (P09581 20-977): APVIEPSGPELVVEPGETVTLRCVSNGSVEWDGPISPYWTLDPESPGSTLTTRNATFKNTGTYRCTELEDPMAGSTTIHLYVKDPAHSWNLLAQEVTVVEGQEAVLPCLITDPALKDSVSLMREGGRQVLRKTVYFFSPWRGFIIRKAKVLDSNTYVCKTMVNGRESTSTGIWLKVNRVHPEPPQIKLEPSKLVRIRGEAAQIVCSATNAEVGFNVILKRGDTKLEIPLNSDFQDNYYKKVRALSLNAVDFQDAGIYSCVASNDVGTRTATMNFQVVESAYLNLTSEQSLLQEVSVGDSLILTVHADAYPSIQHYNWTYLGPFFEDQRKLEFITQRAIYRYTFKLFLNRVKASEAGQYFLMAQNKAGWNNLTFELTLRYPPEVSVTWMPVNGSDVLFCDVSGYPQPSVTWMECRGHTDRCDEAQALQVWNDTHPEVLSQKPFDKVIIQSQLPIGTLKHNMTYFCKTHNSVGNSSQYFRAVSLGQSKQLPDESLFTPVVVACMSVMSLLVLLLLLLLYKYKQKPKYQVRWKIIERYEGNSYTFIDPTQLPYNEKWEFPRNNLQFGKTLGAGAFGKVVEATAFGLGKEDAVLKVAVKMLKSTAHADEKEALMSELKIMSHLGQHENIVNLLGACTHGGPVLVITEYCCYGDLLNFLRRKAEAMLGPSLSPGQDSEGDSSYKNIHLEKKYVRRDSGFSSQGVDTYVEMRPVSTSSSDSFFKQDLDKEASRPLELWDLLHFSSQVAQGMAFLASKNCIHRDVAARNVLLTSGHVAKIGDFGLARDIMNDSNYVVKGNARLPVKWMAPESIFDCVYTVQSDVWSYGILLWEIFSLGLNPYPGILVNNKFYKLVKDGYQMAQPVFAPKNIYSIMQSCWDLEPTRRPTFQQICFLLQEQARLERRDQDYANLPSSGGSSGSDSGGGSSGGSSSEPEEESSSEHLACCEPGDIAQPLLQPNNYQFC
Type: cell-based
Procedure, shortened: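 BAC-1.2F5 cells serum-starved (0.1% FCS) 12 h, preincubated with compound 1 h at 37° C, then stimulated 6 min with 50 ng/ml human recombinant M-CSF. Lysates captured on anti-phosphotyrosine plates, detected with anti-c-fms antiserum and peroxidase read-out at 450 nm. IC50 from inhibition normalised between ±M-CSF controls.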

Row | Structure (SMILES) | IC50 [nM]
1 | COc1cc2nccc(Oc3ccc(NC(=O)N[C@H](C)c4cccc(Br)c4)c(F)c3)c2cc1OC [Example 63, N-[(1R)-1-(3-Bromophenyl)ethyl]-N′-{4-[(6,7-dimethoxy-4-quinolyl)oxy]-2-fluorophenyl}urea] | 30.9
2 | COc1cc2c(Oc3ccc(NC(=O)NC(C)c4ccc(F)cc4)cc3F)ccnc2cc1OCCCN1CCOCC1 (centres unmarked) [Example 64, N-(3-Fluoro-4-{[6-methoxy-7-(3-morpholinopropoxy)-4-quinolyl]oxy}phenyl)-N′-[1-(4-fluorophenyl)ethyl]urea] | 9.4
3 | COc1cc2c(Oc3ccc(NC(=O)NC(C)c4ccc(F)c(F)c4)cc3F)ccnc2cc1OCCCN1CCOCC1 (centres unmarked) [Example 65, N-[1-(3,4-Difluorophenyl)ethyl]-N′-(3-fluoro-4-{[6-methoxy-7-(3-morpholinopropoxy)-4-quinolyl]oxy}phenyl)urea] | 13.9
4 | COc1cc2c(Oc3ccc(NC(=O)NC(C)c4ccc(F)cc4F)cc3F)ccnc2cc1OCCCN1CCOCC1 (centres unmarked) [Example 66, N-[1-(2,4-Difluorophenyl)ethyl]-N′-(3-fluoro-4-{[6-methoxy-7-(3-morpholinopropoxy)-4-quinolyl]oxy}phenyl)urea] | 14.7
5 | COc1cc2c(Oc3ccc(NC(=O)NC(C)c4ccc(F)cc4)c(F)c3)ccnc2cc1OCCCN1CCOCC1 (centres unmarked) [Example 67, N-(2-Fluoro-4-{[6-methoxy-7-(3-morpholinopropoxy)-4-quinolyl]oxy}phenyl)-N′-[1-(4-fluorophenyl)ethyl]urea] | 5.7
6 | COc1cc2c(Oc3ccc(NC(=O)NC(C)c4ccc(F)c(F)c4)c(F)c3)ccnc2cc1OCCCN1CCOCC1 (centres unmarked) [Example 68, N-[1-(3,4-Difluorophenyl)ethyl]-N′-(2-fluoro-4-{[6-methoxy-7-(3-morpholinopropoxy)-4-quinolyl]oxy}phenyl)urea] | 9.8
7 | COc1cc2c(Oc3ccc(NC(=O)NC(C)c4ccc(F)cc4F)c(F)c3)ccnc2cc1OCCCN1CCOCC1 (centres unmarked) [Example 69, N-[1-(2,4-Difluorophenyl)ethyl]-N′-(2-fluoro-4-{[6-methoxy-7-(3-morpholinopropoxy)-4-quinolyl]oxy}phenyl)urea] | 11.5

More lines, now with the values ahead:

Row | IC50 [nM] | Structure (SMILES)
8 | 3.6 | COc1cc2nccc(Oc3ccc(NC(=O)NC(C)c4nccs4)c(F)c3)c2cc1OC (centres unmarked) [Example 70, N-{4-[(6,7-Dimethoxy-4-quinolyl)oxy]-2-fluorophenyl}-N′-[1-(1,3-thiazol-2-yl)ethyl]urea]
9 | 3 | COc1cc2nccc(Oc3ccc(NC(=O)N[C@@H](C)c4nccs4)c(F)c3)c2cc1OC [Example 71, N-{4-[(6,7-Dimethoxy-4-quinolyl)oxy]-2-fluorophenyl}-N′-[(1S)-1-(1,3-thiazol-2-yl)ethyl]urea]
10 | 4.9 | COc1cc2nccc(Oc3ccc(NC(=O)N[C@H](C)c4nccs4)c(F)c3)c2cc1OC [Example 72, N-{4-[(6,7-Dimethoxy-4-quinolyl)oxy]-2-fluorophenyl}-N′-[(1R)-1-(1,3-thiazol-2-yl)ethyl]urea]
11 | 3 | COc1cc2nccc(Oc3ccc(NC(=O)NC(C)c4nccs4)cc3F)c2cc1OC (centres unmarked) [Example 73, N-{4-[(6,7-Dimethoxy-4-quinolyl)oxy]-3-fluorophenyl}-N′-[1-(1,3-thiazol-2-yl)ethyl]urea]
12 | 5 | COc1cc(Oc2ccnc3cc(OC)c(OC)cc23)ccc1NC(=O)NC(C)c1nccs1 (centres unmarked) [Example 74, N-{4-[(6,7-Dimethoxy-4-quinolyl)oxy]-2-methoxyphenyl}-N′-[1-(1,3-thiazol-2-yl)ethyl]urea]
13 | 4.7 | COc1cc2nccc(Oc3ccc(NC(=O)NC(C)c4nccs4)cc3)c2cc1OC (centres unmarked) [Example 77, N-{4-[(6,7-Dimethoxy-4-quinolyl)oxy]phenyl}-N′-[1-(1,3-thiazol-2-yl)ethyl]urea]
14 | 2.9 | COc1cc2nccc(Oc3ccc(NC(=O)N[C@@H](C)c4nccs4)cc3)c2cc1OC [Example 78, N-{4-[(6,7-Dimethoxy-4-quinolyl)oxy]phenyl}-N′-[(S)-1-(1,3-thiazol-2-yl)ethyl]urea]
